Holding throughout (format): functional
The test system of assay [1] is Mythimna separata. The assay is described as follows: Insecticidal activity against Mythimna separata (Oriental armyworm) second-instar larvae infested on compound pre-treated corn leaves assessed as insect mortality at 500 mg/L measured 48 hr post compound treatment by leaf-dip method.
In assay [2] the test system is Aphis craccivora. The assay is described as follows: Insecticidal activity against Aphis craccivora (cowpea aphid) infested horsebean plant leaves assessed as insect mortality measured 24 hr post compound treatment by leaf-dip method.
Assay [3] concerns Aphis craccivora. The assay is described as follows: Insecticidal activity against Aphis craccivora (cowpea aphid) infested horsebean plant leaves assessed as insect mortality at 500 mg/L measured 24 hr post compound treatment by leaf-dip method.
Assay [4] relates to Mythimna separata. The assay is described as follows: Insecticidal activity against Mythimna separata(Oriental armyworm) second-instar larvae infested on compound pre-treated corn leaves assessed as insect mortality measured 48 hr post compound treatment by leaf-dip method.
The test system of assay [5] is Laodelphax striatellus. The assay is described as follows: Potency index, ratio of LC50 for imidacloprid to LC50 for test compound against Laodelphax striatella (small brown planthopper) grown on booting stage rice plant stems assessed as insect mortality measured 48 hr post compound treatment by leaf-dip method.
Assay [6] concerns Nephotettix cincticeps. The assay is described as follows: Potency index, ratio of LC50 for imidacloprid to LC50 for test compound against Nephotettix cincticeps (green rice leafhopper) grown on booting stage rice plant stems assessed as insect mortality measured 48 hr post compound treatment by leaf-dip method.
Assay [7] deals with Laodelphax striatellus. The assay is described as follows: Insecticidal activity against Laodelphax striatella (small brown planthopper) grown on booting stage rice plant stems assessed as insect mortality measured 48 hr post compound treatment by leaf-dip method.
Assay [8] concerns Nephotettix cincticeps. The assay is described as follows: Insecticidal activity against Nephotettix cincticeps (green rice leafhopper) grown on booting stage rice plant stems assessed as insect mortality measured 48 hr post compound treatment by leaf-dip method.

Experimental findings from ChEMBL document CHEMBL3046354, “Design, synthesis, and insecticidal activities of novel analogues of neonicotinoids: replacement of nitromethylene with nitroconjugated system” (2009) are described below.

Usually mortality stands for the percentage killed. For orientation: LC50 means the concentration lethal to half of the exposed cells or organisms. Regarding `O=[N+]([O-])/C(=C\c1cccs1)C1=NCCCN1Cc1ccc(Cl)nc1`, the mortality at 500 µg/mL with Mythimna separata [1] came to 73.3%; in the assay on Aphis craccivora [3], 100%. In addition, the LC50 with Aphis craccivora [2] turned out to be 20.5 µM.

`Cc1ccc(/C=C(/C2=NCCCN2Cc2ccc(Cl)nc2)[N+](=O)[O-])o1`: the mortality at 500 µg/mL in the assay with Mythimna separata [1] was found to be 33.3%; in the assay on Aphis craccivora [3] it was 100%. In the assay with Aphis craccivora [2], the LC50 came out at 698 µM.

In the case of `O=[N+]([O-])/C(=C\c1ccc(Cl)o1)C1=NCCCN1Cc1ccc(Cl)nc1`, the mortality at 500 µg/mL in the assay on Mythimna separata [1] worked out at 96.7%; in the assay on Aphis craccivora [3] it was 100%. In addition, the LC50 with Aphis craccivora [2] is 60.9 µM.

`Cc1ccc(/C=C(/C2=NCCCN2Cc2ccc(Cl)nc2)[N+](=O)[O-])s1`: the mortality at 500 µg/mL with Mythimna separata [1] is 63.3%; in the assay with Aphis craccivora [3], 100%. Besides, in the assay on Aphis craccivora [2], the LC50 came out at 24.6 µM.

On to `O=[N+]([O-])/C(=C\c1ccco1)C1=NCCN1Cc1ccccc1`, for which the mortality at 500 µg/mL is 46.6% with Mythimna separata [1] and 0% with Aphis craccivora [3].

In the case of `O=[N+]([O-])/C(=C\c1ccco1)C1=NCCN1Cc1ccc(Cl)cc1`, the mortality at 500 µg/mL worked out at 67.2% with Mythimna separata [1] and 98% in the assay with Aphis craccivora [3]. The LC50 in the assay on Aphis craccivora [2] came to 234 µM.

Consider `O=[N+]([O-])/C(=C\c1ccco1)C1=NCCN1Cc1cnc(Cl)s1`, for which the LC50 in the assay on Mythimna separata [4] was 107 µM; in the assay with Aphis craccivora [2] it was 3.5 µM. Besides, the mortality at 500 µg/mL with Mythimna separata [1] and in the assay with Aphis craccivora [3] was 100% throughout.

Consider `Cl.O=[N+]([O-])/C(=C\c1ccco1)C1=NCCN1Cc1ccc(Cl)nc1`, for which the RatioLC50 is 6.9 in the assay with Laodelphax striatellus [5] and 16 with Nephotettix cincticeps [6]. For the same compound, the LC50 in the assay with Laodelphax striatellus [7] was 7.23 µM; in the assay on Nephotettix cincticeps [8], 1.3 µM; in the assay with Mythimna separata [4], 24.7 µM; in the assay with Aphis craccivora [2], 3.72 µM. In addition, the mortality at 500 µg/mL with Mythimna separata [1] and in the assay with Aphis craccivora [3] was 100% each time.

For the compound `Cc1ccc(/C=C(/C2=NCCN2Cc2ccc(Cl)nc2)[N+](=O)[O-])o1`, the 50% lethal concentration (LC50) amounted to 4.05 µM in the assay with Nephotettix cincticeps [8], 53.1 µM in the assay on Mythimna separata [4] and 6.34 µM with Aphis craccivora [2]. For the same compound, the mortality at 500 µg/mL in the assay with Mythimna separata [1] and in the assay with Aphis craccivora [3] was 100% in each case.

Regarding `CCc1ccc(/C=C(/C2=NCCN2Cc2ccc(Cl)nc2)[N+](=O)[O-])o1`, the LC50 came to 97.9 µM in the assay on Mythimna separata [4] and 1.82 µM with Aphis craccivora [2]. In addition, the mortality at 500 µg/mL in the assay on Mythimna separata [1] and with Aphis craccivora [3] was 100% throughout.

With `Cc1cc(/C=C(/C2=NCCN2Cc2ccc(Cl)nc2)[N+](=O)[O-])oc1C`, the mortality at 500 µg/mL in the assay with Mythimna separata [1] turned out to be 0%; in the assay with Aphis craccivora [3], 100%. The median lethal concentration (LC50) with Aphis craccivora [2] is 4.65 µM.

On to `Cl.O=[N+]([O-])/C(=C\c1ccc(CO)o1)C1=NCCN1Cc1ccc(Cl)nc1`, for which the RatioLC50 with Nephotettix cincticeps [6] is 18.8. The LC50 with Nephotettix cincticeps [8] was 1.11 µM; in the assay on Mythimna separata [4], 33.9 µM; with Aphis craccivora [2], 10.6 µM. For the same compound, the mortality at 500 µg/mL with Mythimna separata [1] and with Aphis craccivora [3] was 100% throughout.

`O=[N+]([O-])/C(=C\c1ccc(Cl)o1)C1=NCCN1Cc1ccc(Cl)nc1`: the LC50 in the assay with Mythimna separata [4] is 37.6 µM; in the assay with Aphis craccivora [2], 7.54 µM. Besides, the mortality at 500 µg/mL with Mythimna separata [1] and with Aphis craccivora [3] was 100% each time.

In the case of `O=[N+]([O-])/C(=C\c1ccc(Br)o1)C1=NCCN1Cc1ccc(Cl)nc1`, the LC50 in the assay on Nephotettix cincticeps [8] is 2.54 µM; in the assay with Mythimna separata [4], 39.7 µM; with Aphis craccivora [2], 7.3 µM. The mortality at 500 µg/mL with Mythimna separata [1] and in the assay with Aphis craccivora [3] was 100% throughout.

On to `O=[N+]([O-])/C(=C\c1ccc([N+](=O)[O-])o1)C1=NCCN1Cc1ccc(Cl)nc1`, for which the results for the LC50 with Nephotettix cincticeps [8], in the assay on Mythimna separata [4] and with Aphis craccivora [2] were 154 µM, 69.5 µM and 11.1 µM, respectively. The mortality at 500 µg/mL in the assay on Mythimna separata [1] and in the assay on Aphis craccivora [3] was 100% in each case.

As to `O=[N+]([O-])/C(=C\c1ccoc1)C1=NCCN1Cc1ccc(Cl)nc1`, the LC50 was 55.3 µM in the assay on Mythimna separata [4] and 4.46 µM in the assay with Aphis craccivora [2]. In addition, the mortality at 500 µg/mL in the assay with Mythimna separata [1] and in the assay with Aphis craccivora [3] was 100% throughout.

Take `Cl.O=[N+]([O-])/C(=C\c1cccs1)C1=NCCN1Cc1ccc(Cl)nc1`: the RatioLC50 in the assay with Laodelphax striatellus [5] is recorded as 3.6; in the assay with Nephotettix cincticeps [6], 17.1. Moreover, the LC50 in the assay on Laodelphax striatellus [7] came to 14 µM; with Nephotettix cincticeps [8], 1.22 µM; in the assay with Mythimna separata [4], 52.9 µM; in the assay on Aphis craccivora [2] it was 4.23 µM. Also, the mortality at 500 µg/mL with Mythimna separata [1] and in the assay with Aphis craccivora [3] was 100% throughout.

For `O=[N+]([O-])/C(=C\c1cc(Br)cs1)C1=NCCN1Cc1ccc(Cl)nc1`, the mortality at 500 µg/mL in the assay on Mythimna separata [1] and in the assay on Aphis craccivora [3] was 0% each time.

With `Cc1ccc(/C=C(/C2=NCCN2Cc2ccc(Cl)nc2)[N+](=O)[O-])s1`, the LC50 worked out at 29.7 µM in the assay on Mythimna separata [4] and 3.11 µM in the assay on Aphis craccivora [2]. The mortality at 500 µg/mL in the assay on Mythimna separata [1] and with Aphis craccivora [3] was 100% each time.

As to `O=[N+]([O-])/C(=C\c1ccsc1)C1=NCCN1Cc1ccc(Cl)nc1`, the mortality at 500 µg/mL with Mythimna separata [1] amounted to 0%; in the assay with Aphis craccivora [3] it was 31.9%.

For `O=[N+]([O-])/C(=C\c1ccc[nH]1)C1=NCCN1Cc1ccc(Cl)nc1`, the values for the LC50 in the assay with Mythimna separata [4] and with Aphis craccivora [2] were 39.7 µM and 11.2 µM, respectively. Moreover, the mortality at 500 µg/mL in the assay with Mythimna separata [1] and in the assay on Aphis craccivora [3] was 100% each time.

Regarding `O=[N+]([O-])/C(=C\c1ccco1)C1=NCCCN1Cc1ccc(Cl)nc1`, the values for the mortality at 500 µg/mL in the assay on Mythimna separata [1] and in the assay on Aphis craccivora [3] were 16.7% and 100%, respectively. In the assay with Aphis craccivora [2], the LC50 is 76.4 µM.

On to `O=[N+]([O-])/N=C1\NCCN1Cc1ccc(Cl)nc1` [IMIDACLOPRID], for which the LC50 turned out to be 49.8 µM in the assay on Laodelphax striatellus [7], 20.9 µM with Nephotettix cincticeps [8] and 35 µM with Aphis craccivora [2]. Besides, the mortality at 500 µg/mL with Aphis craccivora [3] is 100%.
